Experimental data from patent publication US7045116B2, “Treatment of osteomyelitis with radiopharmaceuticals” (priority 2001, dated 2006).

Tests used:
[1] = Biodistribution of radiopharmaceuticals in rats with tourniquet on left hind leg; assay type: in vivo, Sprague-Dawley rats; details: for Femoral Percentage Dose per Gram / Tibial Percentage Dose per Gram: i.v. tail vein; for Tibial Percentage Dose per Gram: sacrifice after two hours
Source text: Rat biodistribution studies were done on Male Sprague-Dawley rats weighing 180–200 g that had been acclimated for approximately one week prior to this study. Four test complexes were used, Ho-DOTMP (Example 3), Ho-EDTMP (Example 4), Sm-DOTMP (Example 5) and Sm-EDTMP (Example 6). The rats were placed in a restraining cage that afforded accessibility to the left hind leg and tail. Prior to injection a tie wrap tourniquet was placed on the left hind femur above the knee to restrict blood flow. The amount of pressure induced by the tourniquet was standardized by using a tie wrap gun and was sufficient to stop arterial flow. Three rats per complex each received a 100.0 μL intravenous injection in a lateral tail vein. The tourniquets were allowed to remain in place for 5, 10 or 20 minutes post injection and were then removed. The rats were then watched for two hours, the usual biodistribution period used to allow excretion of all radioactive complexes not bound to tissue. The rats were then sacrificed for removal of tibias. The number of radioactive counts were then determined and compared to the average of number of counts of three 100.0 μL standards of the same material that was injected. Several additional tissues (femur, injection site, liver, kidney, spleen, muscle, and blood) were collected and counted for rats that had the 20 minutes restricted blood flow to check for expected renal excretion of radioactive complexes.
This reflects the concentration of the radioactive complex in the bone. Table 1 combines the data on the radioactivity found in the tibias of the rats from Examples 3 to 6 for each of the three times of tourniquet placement. Table 2 combines the data on the radioactivity found in the femurs of the rats from Examples 3 to 6 for the tourniquets applied for 20 minutes. The degree of “protection” of the bone by the tourniquet can be seen by comparison of the radioactivity in the bones on the left side (“protected” by the tourniquet for the time specified) as compared to the corresponding bones on the right side (fully exposed to the systemic, intravenous dose).

Staphylococcus aureus = experiment: Treatment of osteomyelitis in rats with 166Ho-DOTMP (serial radiographs of the leg); assay type: in vivo, Sprague Dawley rats; details: rats with S. aureus osteomyelitis of left leg; intramuscular injection of 30 Gray (9 milliCurie); tourniquet above knee released after 10 minutes; in two weeks
Method: This example describes the successful treatment of osteomyelitis in rats using ^166Ho-DOTMP. Four 150 g male Sprague Dawley rats were anesthetized and prepared for surgery by shaving the left leg. The skin over the left tibia and fibula was opened, a hole was drilled into the bone marrow, and an 18-gauge needle was inserted into the bone marrow. Through the needle, a piece of 0 surgical suture and approximately 0.1 ml of Staphylococcus aureus culture in Trypticase soy broth were introduced into the bone marrow. The needle was removed and the bone defect sealed with cyanoacrylate glue. The skin was closed with 0 surgical suture. The rats were followed with serial radiographs of the left leg. Lytic lesions diagnostic of osteomyelitis developed in the fibula over the next three weeks. The entire bone appeared radiolucent. Two rats were followed without treatment. One week later, both of the rats died. […] Culture of the fluid grew Gram positive cocci consistent with the original Staphylococcus aureus infection. Two rats were treated with ^166Ho-DOTMP. A tourniquet was placed on the left leg above the knee. An intramuscular injection of 30 Gray (9 milliCurie) of ^166Ho-DOTMP was given after application of the tourniquet. The tourniquet was released after 10 minutes. The rats were followed with continued serial radiographs of the leg.

[2] = Left Femur (partially protected by tourniquet), tourniquet 20 minute
[3] = Left Tibia (protected by tourniquet), tourniquet 5 minute
[4] = Left Tibia (protected by tourniquet), tourniquet 10 minute
[5] = Left Tibia (protected by tourniquet), tourniquet 20 minute
[6] = Right Femur (unprotected), tourniquet 20 minute
[7] = Right Tibia (unprotected), tourniquet 5 minute
[8] = Right Tibia (unprotected), tourniquet 10 minute
[9] = Right Tibia (unprotected), tourniquet 20 minute

Compound	Dose per Gram in Left Leg as a Percentage of Dose per Gram in Right Leg ([1]; Femur, tourniquet 20 minute) [%]	Femoral Percentage Dose per Gram [1, 2] [Percentage Dose per Gram]	Tibial Percentage Dose per Gram [1, 3] [Percentage Dose per Gram]	Tibial Percentage Dose per Gram [1, 4] [Percentage Dose per Gram]	Tibial Percentage Dose per Gram [1, 5] [Percentage Dose per Gram]	Femoral Percentage Dose per Gram [1, 6] [Percentage Dose per Gram]	Tibial Percentage Dose per Gram [1, 7] [Percentage Dose per Gram]	Tibial Percentage Dose per Gram [1, 8] [Percentage Dose per Gram]	Tibial Percentage Dose per Gram [1, 9] [Percentage Dose per Gram]	Dose per Gram in Left Leg as a Percentage of Dose per Gram in Right Leg ([1]; Tibia, tourniquet 5 minute) [%]	Dose per Gram in Left Leg as a Percentage of Dose per Gram in Right Leg ([1]; Tibia, tourniquet 10 minute) [%]	Dose per Gram in Left Leg as a Percentage of Dose per Gram in Right Leg ([1]; Tibia, tourniquet 20 minute) [%]	Radiographic appearance of tibia and fibula (Staphylococcus aureus)
O=P(O)(O)CN1CCN(CP(=O)(O)O)CCN(CP(=O)(O)O)CCN(CP(=O)(O)O)CC1.[Ho+3] [Ho-DOTMP]	24	1.33	3.19	3.41	1.35	5.59	7.06	7.52	6.39	45	45	21	–
O=P(O)(O)CN(CCN(CP(=O)(O)O)CP(=O)(O)O)CP(=O)(O)O.[Ho+3] [Ho-EDTMP]	54	2.33	1.35	3.49	1.25	4.31	1.60	6.95	5.33	84	50	23	–
O=P(O)(O)CN1CCN(CP(=O)(O)O)CCN(CP(=O)(O)O)CCN(CP(=O)(O)O)CC1.[Sm+3] [Sm-DOTMP]	22	1.40	4.82	3.38	2.06	6.46	7.91	6.79	8.34	61	50	25	–
O=P(O)(O)CN(CCN(CP(=O)(O)O)CP(=O)(O)O)CP(=O)(O)O.[Sm+3] [Sm-EDTMP]	38	2.05	5.33	2.56	2.04	5.44	6.73	6.17	5.73	79	41	36	–
O=P([O-])(O)CN1CCN(CP(=O)(O)O)CCN(CP(=O)([O-])O)CCN(CP(=O)(O)O)CC1.[166Ho] [^166Ho-DOTMP]	–	–	–	–	–	–	–	–	–	–	–	–	return to normal appearance of the tibia and fibula
